According to PubChem BioAssay (NCI):
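1) Cells in 96-well plates. 2) Compound, 48 h, 5 concentrations. 3) Linear interpolation between surrounding doses. 4) Unreached endpoint = highest concentration. TGI: total growth inhibition.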

What was measured:
Experiment in all cases: NCI-60 cell line screen, 48 h
[1] = tested on: DU-145 prostate
[2] = tested on: SW-620 colon
[3] = tested on: OVCAR-8 ovarian
[4] = tested on: K-562 leukemia
[5] = tested on: EKVX NSCLC
[6] = tested on: ACHN renal
[7] = tested on: SN12C renal
[8] = tested on: MDA-N
[9] = tested on: HOP-92 NSCLC
[10] = tested on: SF-295 CNS
[11] = tested on: OVCAR-3 ovarian
[12] = tested on: SK-MEL-5 melanoma
[13] = tested on: TK-10 renal
[14] = tested on: MCF7 breast
[15] = tested on: HCC-2998 colon
[16] = tested on: U251 CNS
[17] = tested on: NCI-H460 lung
[18] = tested on: PC-3 prostate
[19] = tested on: BT-549 breast

Row | SMILES | TGI [1] [µM] | TGI [2] [µM] | TGI [3] [µM] | TGI [4] [µM] | TGI [5] [µM] | TGI [6] [µM] | TGI [7] [µM] | TGI [8] [µM] | TGI [9] [µM] | TGI [10] [µM] | TGI [11] [µM] | TGI [12] [µM] | TGI [13] [µM] | TGI [14] [µM] | TGI [15] [µM] | TGI [16] [µM] | TGI [17] [µM] | TGI [18] [µM] | TGI [19] [µM]
1 | CC12CCCCC1=C(F)C(F)(F)S2 (stereo not given) | > 100 | > 73.7 | 77.3 | 59.2 | > 100 | 51.6 | > 75.2 | > 46.4 | > 67.9 | > 71.4 | 48 | > 91.1 | 69.9 | > 79.6 | > 86.5 | > 100 | > 100 | > 87.2 | 43
2 | CC(O)c1cc2c(s1)C(=O)c1c(C(C)O)csc1C2=O (stereo not given) | 0.242 | 0.833 | 0.717 | 0.616 | 1.13 | 1.38 | 0.349 | 0.0483 | 0.762 | 0.255 | 0.135 | 0.0716 | 1.79 | > 100 | 1.07 | 4.32 | 0.148 | 0.514 | 0.378
3 | CCOC(=O)c1cn2c(n1)sc1cc(OC)ccc12 | 24.6 | > 100 | > 100 | > 100 | > 100 | > 100 | > 100 | > 22.6 | > 100 | > 65.5 | > 44.8 | > 44.3 | > 100 | > 100 | > 100 | 21.9 | > 100 | > 100 | > 100
4 | COc1ccc(-c2c(-c3ccccc3)c(C)c3ccccn23)cc1 | > 100 | > 100 | > 100 | > 100 | > 100 | > 100 | > 100 | > 100 | > 100 | > 100 | > 100 | > 100 | > 100 | > 100 | > 100 | > 100 | > 100 | > 100 | > 100
5 | COc1cc(C2c3cc4c(cc3OC(NNS(=O)(=O)c3ccc(C)cc3)C2C)OCO4)cc(OC)c1OC (stereo not given) | > 100 | > 100 | 46.8 |  | 18.3 | > 52 | > 71.4 | 2.01 | 50.1 | 6.86 | 7.78 | 25 | > 79 | > 39.8 | > 23.4 | 13.4 | 12.4 | > 72.5 | 45.6
6 | COc1ccc(-c2oc3cc(OC)c(OC)c(O)c3c(=O)c2OC)cc1 | > 100 | > 100 | > 100 | > 100 | > 100 | > 100 | > 100 | > 100 | 33.8 | 46.9 |  | > 100 | > 100 | > 100 | > 100 | > 100 | > 100 | > 100 | 42
7 | COc1c2c(nc3ccccc13)-c1cc(C(CC(=O)OC(C)(C)C)C(=O)OC(C)C)c(CO)c(=O)n1C2 (stereo not given) | > 100 | > 100 | > 100 | > 100 | > 100 | > 100 | > 100 | > 100 | > 100 | > 100 | > 100 | > 100 | > 100 | 19.3 | > 100 | > 100 | > 86.1 | > 100 | > 100
8 | NC(=O)CSc1c2cc(O)ccc2nc2ccc(O)cc12 | > 10 | > 10 | > 10 | > 10 | > 10 | > 10 | > 10 | > 10 | > 10 | > 10 | > 10 | > 10 | > 10 | > 10 | > 10 | > 10 | > 10 | > 10 | > 10
9 | O=C1/C(=C\c2ccc(Br)cc2)CCCc2ccccc21 | 49.4 | 43 | 28.2 | > 100 | 39 | 30.6 | 32.1 | 47 | 39.8 | 52.9 | 65.1 |  | 35.4 | > 100 | 30.1 | 31.2 | 34 | 55.4 | 55.9
10 | Cc1nc2ccc(S(=O)(=O)NS(=O)(=O)c3ccc(-c4ccccc4)cc3)cc2c(=O)n1NS(=O)(=O)c1ccc(-c2ccccc2)cc1 | > 100 | > 100 | > 100 | > 100 | > 100 | > 100 | > 100 | > 100 | > 100 | > 100 | > 100 | > 100 | > 100 | > 100 | > 100 | > 100 | > 100 | > 100 | > 100
11 | CC1(C)CO[P@@](=S)(c2ccccn2)O[C@@H]1c1ccccc1 | > 100 | > 100 | > 100 | > 100 | > 100 | > 100 | > 100 | > 100 | > 100 | > 100 | > 100 | > 100 | > 100 | > 100 | > 100 | > 100 | > 100 | > 100 | > 100
12 | Cc1ccc2nc3n[nH]c(N)c3nc2c1 | > 100 | > 100 | > 100 |  | > 100 | > 100 | > 100 | > 100 | > 100 | > 100 | > 100 | > 100 | > 100 | > 100 | > 100 | > 100 | > 100 | > 100 | > 100
13 | C[C@H]1C2Cc3cc(O)ccc3[C@@]1(C)CCN2CCc1ccc(N)cc1 | > 100 | 36 | 45.8 | 52.6 | > 100 | > 100 | > 100 | 38.4 | 73.7 | 53.7 | 47 | 27.5 | > 100 | 28.4 | 26.4 | 33.9 | > 100 | 34.8 | > 100
14 | N#Cc1c(Cl)c2cccnc2n2c1nc1ccccc12 | 4.03 | 4.59 | 3.77 | 6.05 | 14.9 | 3.2 | 3.7 | 15.7 | 3.91 | 35.9 | 9.6 | 2.6 | 3.09 | > 25.1 | 10.7 | 10.3 | 19.6 | 6.23 | 9.28
15 | O=c1[nH]nc(-c2ccccc2)n1/N=C/c1ccccc1O | > 100 | > 100 | > 100 | > 100 | > 100 | > 100 | > 100 | > 100 | > 100 | > 100 | > 100 | > 100 | > 100 | > 100 | > 100 | > 100 | > 100 | > 100 | > 100
16 | Oc1ccc(/C=C/c2cccc(/C=C/c3ccc(O)c(O)c3)n2)cc1O | 20.6 | > 100 | 20.8 | 49.6 | 25.5 | 18.7 | 27.5 | 20.5 | 25.3 | 65.1 | > 100 | 15.8 | 23.6 | 25.8 | 33.1 | > 100 | 38.1 | > 100 | > 100
17 | O=C1CCCC/C1=C\c1ccc([N+](=O)[O-])cc1 | > 100 |  | 37.1 | 32.1 | > 100 | 68.1 | 30.9 | 41.5 | 52.1 | 51 | 83.5 | > 100 | 26.3 | 37.4 | 27.2 | 29.6 | > 100 | 4.46 | 59.3
18 | O=[N+]([O-])C(/C(Cl)=C(\Cl)Br)=C(/Cl)SCc1ccccc1 | 25.7 | 4.61 | 8.13 | 4.12 | 14.5 | 8.64 | 11.3 | 4.09 | 5.34 | 35.9 | 8.83 | 15 | 10.8 | 11.2 | 25.1 | 18.5 | 30.5 | 14.3 | 7.38
19 | Clc1ccc(-c2cc(-c3cc4cc(Br)ccc4nc3Cl)on2)cc1 | > 50 | 27.5 | > 50 | > 50 | 36.2 | > 50 | > 50 | 30.6 | > 50 | > 50 | 30.7 | 19.6 |  | 43.8 | 23.9 |  | 22.6 | > 50 | > 50
20 | CC(C)=NOC(=O)CNC(=O)C(Cc1ccccc1)NC(=O)C(C)NC(=O)OC(C)(C)C (stereo not given) | > 100 | > 100 | > 100 | > 100 | > 100 | > 100 | > 100 | > 100 | > 100 | > 100 | > 100 | > 100 | > 100 | > 100 | > 100 | > 100 | > 100 | > 100 | > 100
21 | Cc1cccc2[nH]c3c(c(O)cc4[nH]c5cccc(C)c5c(=O)c43)c(=O)c12 | > 10 | > 10 | > 10 | > 10 | > 10 | > 10 | > 10 | > 10 |  | > 10 | > 10 | > 10 | > 10 | > 10 | > 10 | > 10 | > 10 | > 10 | > 10
22 | FC(F)(F)c1ccc2c(c1)nc1n2C(c2c(Cl)cccc2Cl)SC1 (stereo not given) | 56.1 | 71.3 | 74.7 |  | 32.3 | 40.3 | 32.2 | 36.8 | 37 | 33.6 | 28.8 |  | 47 | 55.2 | 40.1 | 38.3 | 35 | 37.9 | 55.3
23 | N#CC1=C(N)N(/N=C/c2ccccc2)C(c2ccccc2)C1(C#N)C#N (stereo not given) | 30.6 | 14.5 | 38 | > 26 | 38.3 | 14.9 | 31 | 30.5 | 6.54 | 39.5 | 17.4 | 30.9 | 16.7 | 58.6 | 34.9 | 32.6 |  | 34.5 | 29.4
24 | CC1CN=C(Nc2cccc(F)c2)S1 (stereo not given) | > 100 | > 100 | > 100 | > 100 | > 100 | > 100 | > 100 | > 100 | > 100 | > 100 | > 100 | > 100 | > 100 | > 100 | > 100 | > 100 |  | > 100 | > 100
25 | N=c1oc2ccccc2cc1-c1nc2ccccc2[nH]1 | 35.7 | > 100 | > 100 | 82.6 | 41.1 | 45.4 | > 100 | 40.5 | 35.5 | > 100 |  | > 100 | 38.4 | > 100 | > 100 | > 100 | > 100 | > 100 | 87.4
26 | Cc1ccc(S(=O)(=O)CNC(=O)C(O)(O)C(F)(F)F)cc1 | > 100 | > 100 | > 100 | > 100 | > 100 |  | > 100 | > 100 | > 100 | > 100 | > 100 | > 100 | > 100 | > 100 | > 100 | > 100 | > 100 | > 100 | > 100
